# Measured values from US20160339080A1, “METHODS AND PHARMACEUTICAL COMPOSITIONS FOR THE TREATMENT OF HEPATOCELLULAR CARCINOMAS” (INSERM (INSTITUT NATIONAL DE LA SANTÉ ET DE LA RECHERCHE …, priority 2014, published 2016).
# System: SK-HEP-1 cells
# Experiment: SK-HEP-1 cell growth (trypan blue-excluding adherent cells counted) and apoptosis
# Type: cell-based, human
# Details: NSC-87877 50 μM with 1 μM orexin-A, 48 h
# Experimental: FIG. 1. […] SK-HEP-1 cells were challenged with (black) or without (white) 1 μM orexin-A for 48 h in the absence (wo) or presence of NSC-87877 (50 μM). At the end of the treatment, adherent cells were trypsinized, and cells excluding trypan blue were counted to measure SK-HEP-1 cell growth. Panel B : Effect of orexin-A inoculation on the growth of tumors developed by xenografting human HCC cancer cells SK-HEP-1 in nude mice. SK-HEP-1 cells were inoculated in the flank of nude mice at day 0. Mice were 2 times a week injected intraperitoneally with 100 μL of orexin-A (0,23 μmol/kg) solutions starting at day 0 (white circle) or day 22 (triangle) or with […] of PBS (black circle) for controls.
# Orexins are hypothalamic peptides involved in sleep/wake control. We have shown that orexins promote robust apoptosis in colorectal cancer cells (Voisin T, El Firar A, Fasseu M, Rouyer-Fessard C, Descatoire V, Walker F, Paradis V, Bedossa P, Henin D, Lehy T, Laburthe M. (2011) Aberrant expression of OX1 receptors for orexins in colon cancers and liver metastases: an openable gate to apoptosis. Cancer Res. 71:3341-51.). […]
smiles,measurement,value
O=S(=O)(O)c1ccc2cc(N=Nc3cc(S(=O)(=O)O)c4cccnc4c3O)ccc2c1 [NSC-87877],block of orexin-induced SK-HEP-1 growth inhibition,blocks orexin-induced SK-HEP-1 growth inhibitory
same,reversal of orexin-induced apoptosis,reverse orexin-induced apoptosis
